Each structure is given as a SMILES string. Where two headings read alike, the source gives them in different places.

This note sets out measurements from patent US10040781B2, “Tank-binding kinase inhibitor compounds” (Gilead Sciences, Inc., priority 2014, dated 2018).

The target in test [1] is IKKε (Homo sapiens (Human), UniProt Q14164). The test is described as follows: IKKε TR-FRET enzymatic assay. The format is biochemical. The following applies: read-out: IKKe IC50. A general note: In TR-FRET formats the signal depends on donor and acceptor labels being close together.
IKKε, sequence (Q14164 whole entry): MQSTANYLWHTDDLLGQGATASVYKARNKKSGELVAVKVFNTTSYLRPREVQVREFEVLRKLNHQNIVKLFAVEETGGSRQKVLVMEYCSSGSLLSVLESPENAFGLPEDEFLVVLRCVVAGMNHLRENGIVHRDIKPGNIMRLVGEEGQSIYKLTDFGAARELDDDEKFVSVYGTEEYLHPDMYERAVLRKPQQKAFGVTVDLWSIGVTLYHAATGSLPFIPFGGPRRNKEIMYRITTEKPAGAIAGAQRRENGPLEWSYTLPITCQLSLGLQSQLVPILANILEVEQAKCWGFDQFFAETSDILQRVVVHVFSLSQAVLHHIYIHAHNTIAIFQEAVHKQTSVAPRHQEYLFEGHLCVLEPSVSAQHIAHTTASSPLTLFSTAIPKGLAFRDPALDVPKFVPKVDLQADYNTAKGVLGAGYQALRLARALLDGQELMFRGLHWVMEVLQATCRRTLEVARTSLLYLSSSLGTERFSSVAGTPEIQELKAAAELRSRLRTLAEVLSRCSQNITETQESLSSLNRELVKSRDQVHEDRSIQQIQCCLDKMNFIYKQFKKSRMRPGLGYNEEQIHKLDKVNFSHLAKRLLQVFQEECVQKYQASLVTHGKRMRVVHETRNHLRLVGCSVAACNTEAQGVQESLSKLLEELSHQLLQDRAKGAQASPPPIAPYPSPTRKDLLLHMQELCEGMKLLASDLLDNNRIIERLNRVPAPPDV
Test [2] concerns the target hJAK2 (Homo sapiens (Human), UniProt O60674). As to the kind of experiment: hJAK2 LANCE TR-FRET enzymatic assay. Format: biochemical. Conditions: read-out: JAK2 IC50.
Test [3] has as its target TBK1 (Homo sapiens (Human), UniProt Q9UHD2). As to the kind of experiment: TBK1 TR-FRET enzymatic assay.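 Note: phosphorylation of a biotinylated Ser/Thr peptide by purified full-length recombinant TBK1, read by TR-FRET after 240 min at 25 °C, IC50 is the geometric mean of at least four runs.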
[4] abbreviates: TR-FRET, 2×Km ATP, geometric mean of minimum four determinations.

hJAK2, sequence (O60674 whole entry): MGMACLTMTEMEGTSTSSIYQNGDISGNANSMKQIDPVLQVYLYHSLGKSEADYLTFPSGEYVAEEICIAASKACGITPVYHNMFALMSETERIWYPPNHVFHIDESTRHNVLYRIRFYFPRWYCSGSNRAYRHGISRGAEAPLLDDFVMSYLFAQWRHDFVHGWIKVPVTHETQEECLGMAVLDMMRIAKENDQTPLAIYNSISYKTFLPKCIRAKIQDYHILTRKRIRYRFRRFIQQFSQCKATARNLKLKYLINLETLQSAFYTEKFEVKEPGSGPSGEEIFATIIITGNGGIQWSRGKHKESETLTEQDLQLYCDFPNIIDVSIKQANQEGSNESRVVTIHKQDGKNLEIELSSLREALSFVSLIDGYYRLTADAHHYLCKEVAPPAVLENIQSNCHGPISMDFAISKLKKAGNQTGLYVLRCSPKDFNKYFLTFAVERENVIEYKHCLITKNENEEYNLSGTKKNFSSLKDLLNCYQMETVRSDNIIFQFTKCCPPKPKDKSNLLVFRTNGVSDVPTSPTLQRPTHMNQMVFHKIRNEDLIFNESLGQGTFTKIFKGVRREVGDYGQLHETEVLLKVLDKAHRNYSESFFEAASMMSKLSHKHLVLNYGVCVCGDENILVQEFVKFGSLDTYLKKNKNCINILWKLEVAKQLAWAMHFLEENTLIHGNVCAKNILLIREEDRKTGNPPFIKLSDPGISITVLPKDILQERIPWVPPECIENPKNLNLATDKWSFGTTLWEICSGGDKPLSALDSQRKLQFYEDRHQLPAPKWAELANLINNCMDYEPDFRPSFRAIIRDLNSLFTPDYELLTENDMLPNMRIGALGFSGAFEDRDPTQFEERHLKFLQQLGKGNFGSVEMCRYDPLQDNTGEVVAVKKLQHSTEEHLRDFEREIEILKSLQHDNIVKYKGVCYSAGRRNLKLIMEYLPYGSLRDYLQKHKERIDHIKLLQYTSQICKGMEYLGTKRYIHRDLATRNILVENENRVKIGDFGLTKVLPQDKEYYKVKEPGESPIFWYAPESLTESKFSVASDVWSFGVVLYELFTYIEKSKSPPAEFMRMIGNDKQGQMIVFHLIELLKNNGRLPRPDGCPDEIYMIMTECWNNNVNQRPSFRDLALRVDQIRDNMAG
TBK1, sequence (Q9UHD2 whole entry): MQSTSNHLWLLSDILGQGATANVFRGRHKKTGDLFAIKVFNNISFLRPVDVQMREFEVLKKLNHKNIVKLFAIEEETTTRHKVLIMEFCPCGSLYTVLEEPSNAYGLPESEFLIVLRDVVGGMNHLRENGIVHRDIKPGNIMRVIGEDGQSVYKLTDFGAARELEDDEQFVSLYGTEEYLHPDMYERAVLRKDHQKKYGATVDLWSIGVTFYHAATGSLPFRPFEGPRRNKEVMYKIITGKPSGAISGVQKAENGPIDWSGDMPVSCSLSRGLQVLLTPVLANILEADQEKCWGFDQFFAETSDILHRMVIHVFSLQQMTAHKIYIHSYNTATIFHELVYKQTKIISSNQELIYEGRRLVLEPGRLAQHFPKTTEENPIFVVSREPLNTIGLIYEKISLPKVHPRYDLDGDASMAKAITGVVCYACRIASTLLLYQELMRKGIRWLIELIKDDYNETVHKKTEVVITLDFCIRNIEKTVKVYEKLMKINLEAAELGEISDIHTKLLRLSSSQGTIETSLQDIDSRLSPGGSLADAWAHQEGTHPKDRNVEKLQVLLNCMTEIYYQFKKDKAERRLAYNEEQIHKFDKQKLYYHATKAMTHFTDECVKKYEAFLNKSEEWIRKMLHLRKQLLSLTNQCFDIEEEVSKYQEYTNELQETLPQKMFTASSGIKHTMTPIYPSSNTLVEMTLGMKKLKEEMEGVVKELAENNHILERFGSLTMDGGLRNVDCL

For orientation: IC50 means the concentration at which inhibition is half-maximal. Regarding `CC(C)n1cc(Nc2ncnc(-c3ccc(O[C@H]4CCN(C(=O)CO)C[C@H]4F)c(C#N)c3)n2)cn1` [Example 349, 2-(((3R,4S)-3-fluoro-1-(2-hydroxyacetyl)piperidin-4-yl)oxy)-5-(4-((1-isopropyl-1H-pyrazol-4-yl)amino)-1,3,5-triazin-2-yl)benzonitrile], the IC50 in test [1] worked out at 2 nM; in test [2] it was 98 nM; in test [3], 2 nM.
For `CCC(=O)Nc1ccc(-c2ncnc(Nc3ccc(N4CCN(C5COC5)CC4)cc3)n2)cc1C#N` [Example 495, N-(2-cyano-4-(4-((4-(4-(oxetan-3-yl)piperazin-1-yl)phenyl)amino)-1,3,5-triazin-2-yl)phenyl)propionamide], the IC50 in test [1] (setting [4]) came to 119 nM; in test [2], 109 nM; in test [3], 40 nM.
For the compound `N#Cc1cc(-c2ncnc(Nc3ccc(N4CCN(C5COC5)CC4)cc3)n2)ccc1O[C@@H]1CCN(C(=O)c2nc(=O)[nH][nH]2)C1` [Example 435, (R)-5-(4-((4-(4-(oxetan-3-yl)piperazin-1-yl)phenyl)amino)-1,3,5-triazin-2-yl)-2-((1-(5-oxo-2,5-dihydro-1H-1,2,4-triazole-3-carbonyl)pyrrolidin-3-yl)oxy)benzonitrile], the IC50 in test [1] (setting [4]) was 292 nM; in test [2], at least 1000 nM; in test [3] it was 411 nM.
As for `N#Cc1cc(-c2ncnc(Nc3ccc(N4CCN(C5COC5)CC4)cc3)n2)ccc1O[C@H]1CCN(c2cccnc2)C[C@H]1F` [Example 611, 2-(((3R,4S)-3-fluoro-1-(pyridin-3-yl)piperidin-4-yl)oxy)-5-(4-((4-(4-(oxetan-3-yl)piperazin-1-yl)phenyl)amino)-1,3,5-triazin-2-yl)benzonitrile], the concentration for half-maximal inhibition (IC50) in test [1] is at least 1000 nM; in test [2], at least 1000 nM; in test [3], 1000 nM.
Regarding `CCn1cc(Nc2ncnc(-c3ccc(O[C@H]4CCN(C(=O)[C@H](C)O)C[C@H]4F)c(C#N)c3)n2)cn1` [Example 351, 5-(4-((1-ethyl-1H-pyrazol-4-yl)amino)-1,3,5-triazin-2-yl)-2-(((3R,4S)-3-fluoro-1-((S)-2-hydroxypropanoyl)piperidin-4-yl)oxy)benzonitrile], the IC50 in test [1] stood at 9 nM; in test [2] it was 662 nM; in test [3] it was 6 nM.
Take `N#Cc1cc(-c2ncnc(Nc3ccc(N4CCN(C5COC5)CC4)cc3)n2)ccc1OCCn1ccnc1` [Example 592, 2-(2-(1H-imidazol-1-yl)ethoxy)-5-(4-((4-(4-(oxetan-3-yl)piperazin-1-yl)phenyl)amino)-1,3,5-triazin-2-yl)benzonitrile]: the figures for the IC50 in test [1] (setting [4]), in test [2] and in test [3] were 23 nM, 239 nM and 21 nM, respectively.
For `N#Cc1cc(-c2ncnc(Nc3ccc(N4CCN(C5COC5)CC4)cc3)n2)ccc1O[C@H]1CCN(C(=O)C2(O)COC2)C[C@H]1F` [Example 472, 2-(((3R,4S)-3-fluoro-1-(3-hydroxyoxetane-3-carbonyl)piperidin-4-yl)oxy)-5-(4-((4-(4-(oxetan-3-yl)piperazin-1-yl)phenyl)amino)-1,3,5-triazin-2-yl)benzonitrile], the values for the IC50 in test [1] (setting [4]), in test [2] and in test [3] were 43 nM, 971 nM and 19 nM, respectively.
With `CC(=O)N[C@@H](C)C(=O)N1CC[C@H](Oc2ccc(-c3ncnc(Nc4ccc(N5CCN(C6COC6)CC5)cc4)n3)cc2C#N)[C@H](F)C1` [Example 335, N—((S)-1-((3R,4S)-4-(2-cyano-4-(4-((4-(4-(oxetan-3-yl)piperazin-1-yl)phenyl)amino)-1,3,5-triazin-2-yl)phenoxy)-3-fluoropiperidin-1-yl)-1-oxopropan-2-yl)acetamide], the results for the IC50 in test [1], in test [2] and in test [3] were 834 nM, 478 nM and 508 nM, respectively.
Turning to `C[C@H]1C[C@@H](Oc2ccc(-c3ncnc(Nc4ccc(N5CCN(C6COC6)CC5)cc4)n3)cc2C#N)CCN1C(=O)CC#N` [Example 187, 2-(((2S,4S)-1-(2-cyanoacetyl)-2-methylpiperidin-4-yl)oxy)-5-(4-((4-(4-(oxetan-3-yl)piperazin-1-yl)phenyl)amino)-1,3,5-triazin-2-yl)benzonitrile], the half-maximal inhibitory concentration (IC50) stood at 13 nM in test [1], 183 nM in test [2] and 5 nM in test [3].
As for `CN(CCO)C(=O)N1CC[C@H](Oc2ccc(-c3ncnc(Nc4ccc(N5CCN(C6COC6)CC5)cc4)n3)cc2C#N)[C@H](F)C1` [Example 428, (3R,4S)-4-(2-cyano-4-(4-((4-(4-(oxetan-3-yl)piperazin-1-yl)phenyl)amino)-1,3,5-triazin-2-yl)phenoxy)-3-fluoro-N-(2-hydroxyethyl)-N-methylpiperidine-1-carboxamide], the values for the IC50 in test [1] (setting [4]), in test [2] and in test [3] were 64 nM, at least 1000 nM and 41 nM, respectively.
`CC1(C)CN(C(=O)[C@@H]2CCC(=O)N2)C[C@H](F)[C@@H]1Oc1ccc(-c2ncnc(Nc3ccc(N4CCN(C5COC5)CC4)cc3)n2)cc1C#N` [Example 444]: the results for the IC50 in test [1] (setting [4]), in test [2] and in test [3] were 88 nM, 476 nM and 27 nM, respectively.
As to `N#Cc1cc(-c2ncnc(Nc3ccc(N4CCN(C5COC5)CC4)cc3)n2)ccc1O[C@H]1CCN(C(=O)Cc2ccn[nH]2)C[C@H]1F` [Example 320, 2-(((3R,4S)-1-(2-(1H-pyrazol-5-yl)acetyl)-3-fluoropiperidin-4-yl)oxy)-5-(4-((4-(4-(oxetan-3-yl)piperazin-1-yl)phenyl)amino)-1,3,5-triazin-2-yl)benzonitrile], the 50% inhibitory concentration (IC50) was found to be 40 nM in test [1], 127 nM in test [2] and 14 nM in test [3].
On to `N#Cc1cc(-c2ncnc(Nc3ccc(N4CCN(C5COC5)CC4)cc3)n2)ccc1O[C@H]1CCN(C(=O)C2CCS(=O)(=O)N2)C[C@H]1F` (stereo partly drawn) [Example 118, 2-(((3R,4S)-1-(1,1-dioxidoisothiazolidine-3-carbonyl)-3-fluoropiperidin-4-yl)oxy)-5-(4-((4-(4-(oxetan-3-yl)piperazin-1-yl)phenyl)amino)-1,3,5-triazin-2-yl)benzonitrile], for which the IC50 in test [1] came out at 11 nM; in test [2], 284 nM; in test [3], 7 nM.
Regarding `C[C@H](O)C(=O)N1CC[C@H](Oc2ccc(-c3ncnc(Nc4ccc(O[C@H]5CCN(C)C[C@H]5F)cc4)n3)cc2C#N)[C@H](F)C1` [Example 400, 2-(((3R,4S)-3-fluoro-1-((S)-2-hydroxypropanoyl)piperidin-4-yl)oxy)-5-(4-((4-(((3R,4S)-3-fluoro-1-methylpiperidin-4-yl)oxy)phenyl)amino)-1,3,5-triazin-2-yl)benzonitrile], the values for the IC50 in test [1] (setting [4]), in test [2] and in test [3] were 1 nM, at least 1000 nM and 3 nM, respectively.
In the case of `C[C@H]1C[C@H](Oc2ccc(-c3ncnc(Nc4ccc(N5CCN(C6COC6)CC5)cc4)n3)cc2C#N)CCN1C(=O)CO` [Example 221, 2-(((2S,4R)-1-(2-hydroxyacetyl)-2-methylpiperidin-4-yl)oxy)-5-(4-((4-(4-(oxetan-3-yl)piperazin-1-yl)phenyl)amino)-1,3,5-triazin-2-yl)benzonitrile], the IC50 in test [1] was determined as 68 nM; in test [2], 488 nM; in test [3], 18 nM.
Regarding `N#Cc1cc(-c2ncnc(Nc3ccc(N4CCN(C5COC5)CC4)cc3)n2)ccc1N1CCC2(COC2)C1` [Example 206, 5-(4-((4-(4-(oxetan-3-yl)piperazin-1-yl)phenyl)amino)-1,3,5-triazin-2-yl)-2-(2-oxa-6-azaspiro[3.4]octan-6-yl)benzonitrile], the IC50 in test [1] is 20 nM; in test [2], 236 nM; in test [3] it was 12 nM.
The corresponding values for `C[C@H]1CN(C2COC2)CCN1c1ccc(Nc2ncnc(-c3ccc(O[C@H]4CCN(C(=O)CO)C[C@H]4F)c(C#N)c3)n2)cc1` [Example 244, 2-(((3R,4S)-3-fluoro-1-(2-hydroxyacetyl)piperidin-4-yl)oxy)-5-(4-((4-((S)-2-methyl-4-(oxetan-3-yl)piperazin-1-yl)phenyl)amino)-1,3,5-triazin-2-yl)benzonitrile] are 1 nM, 191 nM and 3 nM.
With `N#Cc1cc(-c2ncnc(Nc3ccc(N4CCN(C5COC5)CC4)c(F)c3)n2)ccc1O[C@H]1CCN(C(=O)[C@@H]2CCC(=O)N2)C[C@H]1F` [Example 372, 2-(((3R,4S)-3-fluoro-1-((S)-5-oxopyrrolidine-2-carbonyl)piperidin-4-yl)oxy)-5-(4-((3-fluoro-4-(4-(oxetan-3-yl)piperazin-1-yl)phenyl)amino)-1,3,5-triazin-2-yl)benzonitrile], the IC50 in test [1] turned out to be 5 nM; in test [2] it was 305 nM; in test [3], 4 nM.
As for `N#Cc1cc(-c2ncnc(Nc3ccc(N4CCN(C5COC5)CC4)cc3)n2)ccc1O[C@H]1CCN(C(=O)C2CC(O)C2)C[C@H]1F` (stereo partly drawn) [Example 550, 2-(((3R,4S)-3-fluoro-1-(3-hydroxycyclobutanecarbonyl)piperidin-4-yl)oxy)-5-(4-((4-(4-(oxetan-3-yl)piperazin-1-yl)phenyl)amino)-1,3,5-triazin-2-yl)benzonitrile], the IC50 was found to be 36 nM in test [1] (setting [4]), 750 nM in test [2] and 11 nM in test [3].
With `C[C@@H]1C[C@@H](Oc2ccc(-c3ncnc(Nc4ccc(N5CCN(C6COC6)CC5)cc4)n3)cc2C#N)CN1C(=O)CO` [Example 99, 2-(((3R,5R)-1-(2-hydroxyacetyl)-5-methylpyrrolidin-3-yl)oxy)-5-(4-((4-(4-(oxetan-3-yl)piperazin-1-yl)phenyl)amino)-1,3,5-triazin-2-yl)benzonitrile], the figures for the IC50 in test [1], in test [2] and in test [3] were 193 nM, 440 nM and 77 nM, respectively.
Turning to `C[C@H](O)C(=O)N1CC[C@H](Oc2ccc(-c3ncnc(Nc4ccc(N5C[C@@H](C)N(C6COC6)C[C@@H]5C)cc4)n3)cc2C#N)[C@H](F)C1` [Example 265, 5-(4-((4-((2S,5R)-2,5-dimethyl-4-(oxetan-3-yl)piperazin-1-yl)phenyl)amino)-1,3,5-triazin-2-yl)-2-(((3R,4S)-3-fluoro-1-((S)-2-hydroxypropanoyl)piperidin-4-yl)oxy)benzonitrile], the 50% inhibitory concentration (IC50) came to 4 nM in test [1], 426 nM in test [2] and 5 nM in test [3].
